Here are results for two compounds from publication PMC10868801, “Characterization of covalent inhibitors that disrupt the interaction between the tandem SH2 domains of SYK and FCER1G phospho-ITAM” (PLOS ONE, 2024).

Molecules are shown by their SMILES. ≈ marks a conversion by molar mass, not a printed value. Entries after “also recorded” stand apart in the source; their conditions may differ. Bounds are passed on as bounds.

Data set [1] addresses T1, full length SYK and FCER1G (Homo sapiens, UniProt P43405).
T1 construct: full length GST-SYK and FCER1G-Flag were co-expressed in HEK293 cells prior to lysis; expressed in transfected cells; host or cells: HEK293T (CRL-3216, ATCC)
Kind of data set: GST pull-down (GST-PD) of GST-SYK and FCER1G-Flag from HEK293T cell lysates. The format is biochemical. As to conditions: dose-response format. The method, then:
Pull-down assays were used as an orthogonal assay to determine if the compounds could disrupt the PPI between full length SYK and FCER1G proteins from cell lysates. To optimize GST pulldown assays, full length GST-SYK and FCER1G-Flag were co-expressed in HEK293 cells prior to lysis and the protein expression and cell lysate concentrations tested (Fig 4A). All 40 compounds that progressed from uHTS were tested via GST-PD at a single concentration (100 μM) to determine if they could inhibit the PPI between the full-length proteins, with the p-ITAM FCER1G peptide used as a positive control (Fig 4B). […] Compound 24 contains a promiscuous maleimide, which is well known to react indiscriminately with proteins.
GST-, VF-tagged human SYK and FCER1G plasmids for mammalian expression were generated using Gateway cloning technology (Invitrogen) as described previously. The DNA was purified using ZymoPURE Plasmid Maxiprep Kit (D4203, Zymo Research).
WB secondary antibodies: peroxidase-conjugated AffiniPure Goat Anti-Mouse IgG (H+L) (115-035-003, Jackson Immuno Research) 1:5000 dilution in TBST. GST pulldown was performed as described with minor changes. HEK293T (CRL-3216, ATCC) were cultured in Dulbecco’s modified Eagle’s medium with 4.5 g/L glucose, L-glutamine, and sodium pyruvate (10–013-CV, Corning) supplemented with 10% fetal bovine serum and 1% penicillin/streptomycin solution (30–002-CI, CellGro). Cells were incubated at 37°C in humidified conditions with 5% CO2. The HEK293T cells were transfected using 1 mg/mL Polyethylenimine (PEI; 23966, Polysciences) in a ratio of 3 μL to 1 μg DNA. The proteins were expressed for 48 h at 37°C. Cell pellets were re-suspended in the SYK lysis buffer (25 mM HEPES, pH 7.5, 200 mM NaCl, 0.5% Triton X100 (T9284-1L, Sigma-Aldrich), followed by sonication for 10 s (5 s on, 5 s off) at 4°C. Cells were pelleted by 10 min centrifugation at 13,000 rpm at 4°C. The cleared lysates were first pre-incubated with compounds for 30 min and then incubated with glutathione sepharose 4B beads (17075605, Cytiva Sweden AB) at 4°C for 2 h with rotation. After the incubation, beads were washed three times with the SYK lysis buffer, eluted by boiling in sodium dodecyl sulfate-polyacrylamide gel electrophoresis (SDS–PAGE) loading buffer (1610737, Bio-Rad), and analyzed by western blotting.

Data set [2] in a line: Kinetic solubility (Analiza, Inc., CLND). Format: physicochemical. As to conditions: phosphate buffered saline, aqueous buffer, kinetic from dmso stock, PBS pH 7.4, 24 h incubation, by Analiza. As to the method:
Following 24 h incubation in a Millipore solubility filter plate, samples were vacuum filtered, and the filtrates collected for analysis. Filtrates were injected into the nitrogen detector for quantification via total chemiluminescent nitrogen determination (CLND). Filtrates were quantified with respect to a calibration curve generated using standards that span the dynamic range of the instrument. The reported solubility value has been corrected for background nitrogen present in the media and DMSO.

Data set [3] has as its target MSN (Homo sapiens, UniProt P26038). Kind of data set: Covalent labelling and intact mass spectrometry (selectivity). To be noted: 1 h, room temperature.
The target in data set [4] is SYK-tSH2 (Homo sapiens, UniProt P43405). Kind of data set: Covalent labelling and intact mass spectrometry. The arrangement: tandem SH2 domains of human SYK (residues M6-N269); 6xHis (N, cleaved yes); made in house; host or cells: E. coli BL21(DE3)-R3-pRARE. The format is binding. To be noted: for Number of mass adducts on SYK-tSH2: 100 μM. From the text: The HTS hits 13 and 37 contain a kojic acid moiety, which is proposed to react covalently with proteins in the literature. As a result, we thought that it was likely these compounds are also reacting covalently with SYK-tSH2. […] When bound to the protein, these kojic acid-derived compounds have a 94 Da decrease in mass due to the loss of the pyridin-2-amine leaving group to reveal a Michael acceptor that can react covalently with cysteine residues (Fig 5B).
To expand on the initial 40 putative hits that were identified via uHTS (Fig 3D), additional commercially available structural analogues were ordered and screened via TR-FRET and differential scanning fluorimetry (DSF) (S1 Table). […] The observation of a substantial reduction in protein melting temperature motivated us to determine if the compounds interacted covalently with the SYK-tSH2 domains. Additionally, since the thiourea in these small molecules is reported to react via oxidation, the compounds could be capable of forming a covalent disulfide bond with cysteine residues on SYK [39]. We used compound 1, which is a known covalent modifier of SYK-tSH2, as a positive control in the mass spectrometry analysis. […] Literature reports support that this type of chemical reaction can occur in DMSO, forming a disulfide bond. […] Like we had originally observed for the older DMSO stock solution of 42 (Fig 6C), 44 forms two to four mass adducts (422 Da and 844 Da) more than the protein mass when incubated SYK-tSH2 for 1 h (Fig 6D). […] Due to the mass adducts of two to four (422 Da and 844 Da), we propose that 44 is forming a disulfide bond with between two or four cysteines on SYK-tSH2 (Fig 6G).

Data set [5] addresses T2, SYK-tSH2 / FCER1G p-ITAM interaction (Homo sapiens, UniProt P43405).
T2 construct: the tSH2 domain of SYK (residues M6-N269) fused to an N-terminal 6×His tag; made in house; host or cells: E. coli BL21(DE3)-R3-pRARE
Kind of data set: TR-FRET assay of 6xHis-SYK-tSH2 with FITC-labeled FCER1G p-ITAM peptide. The format is biochemical. From the text: To facilitate identification of inhibitors of the SYK-FCER1G interaction, we developed a TR-FRET assay using recombinant protein comprising the tSH2 domain of SYK (residues M6-N269) fused to an N-terminal 6×His tag (S1A Fig). The TR-FRET assay is based on the interaction of a FITC-labeled FCER1G p-ITAM peptide to the 6×His-SYK-tSH2 protein in complex with a terbium-conjugated anti-His antibody (Tb-Ab) (Fig 3B). Once excited, a TR-FRET signal is generated from the Tb donor to the FITC acceptor fluorophore. […] To enable uHTS for large scale screening of small molecule libraries, we miniaturized the TR-FRET assay from 96-well plate format to a 1536-well.
TR-FRET experiments were performed in 20 μL reactions, using 384-well shallow-well microplates (PerkinElmer). Final reaction components contained 6xHis-SYK-tSH2 (SYKA-c020 tagged) (4 nM), FITC-conjugated FCER1G peptide (8 nM), Tb-conjugated anti-6xHis antibody (53 ng/ml; Cisbio) in assay buffer containing 25 mM HEPES (pH 7.5), 200 mM NaCl, 0.1% BSA and 0.05% Tween-20. After a 2h incubation (at room temperature), TR-FRET signals were measured on a BMG Labtech PHERAstar FSX reader using a Lanthascreen Optics Module. A 200 μs delay was used after excitation with a flash lamp before measurement of fluorescence emission at […]. TR-FRET ratios of fluorescent intensity at 520 nm to 490 nm were calculated. The half maximal inhibitory concentration (IC50) was determined by fitting a four parametric logistic curve to the data.
(Time-resolved FRET reads energy transfer from a long-lived donor to a nearby acceptor.)

Data set [6] relates to SYK-tSH2 domains with a doubly phosphorylated ITAM from a T-cell antigen receptor ζ-chain. More on the design: method as in PMID 25287889. As to conditions: cited from earlier work.
Data set [7] relates to SYK-tSH2. More on the design: method as in PMID 25287889. To be noted: mass spectrometry; cited from earlier work.

Chain of MSN (P26038 whole entry, species assumed, the tested form may be a part): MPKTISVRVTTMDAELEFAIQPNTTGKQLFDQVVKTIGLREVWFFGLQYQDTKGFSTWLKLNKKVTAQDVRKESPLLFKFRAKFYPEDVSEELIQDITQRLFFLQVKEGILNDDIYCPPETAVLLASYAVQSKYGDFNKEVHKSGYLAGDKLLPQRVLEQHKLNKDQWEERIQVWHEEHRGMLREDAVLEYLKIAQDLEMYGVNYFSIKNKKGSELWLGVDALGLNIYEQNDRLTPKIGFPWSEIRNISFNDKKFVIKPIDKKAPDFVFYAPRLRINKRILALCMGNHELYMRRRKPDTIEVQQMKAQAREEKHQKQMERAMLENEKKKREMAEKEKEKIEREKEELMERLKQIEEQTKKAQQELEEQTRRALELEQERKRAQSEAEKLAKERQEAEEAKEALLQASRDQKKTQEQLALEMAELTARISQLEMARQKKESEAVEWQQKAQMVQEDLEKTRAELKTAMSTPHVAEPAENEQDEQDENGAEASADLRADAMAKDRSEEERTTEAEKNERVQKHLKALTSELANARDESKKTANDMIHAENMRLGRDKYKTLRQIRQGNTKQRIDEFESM

For `Cn1c(=O)c2[nH]c(SSc3nc4c([nH]3)c(=O)n(C)c(=O)n4C)nc2n(C)c1=O` [compound 44, 8,8’-disulfanediylbis(1,3-dimethyl-3,7-dihydro-1H-purine-2,6-dione)], the melting point (commonly the temperature of the solid-liquid transition) was more than 300 °C. Moreover, in data set [1], the “PPI disruption in GST-PD” value is given as “disrupted the PPI; also recorded: able to disrupt the full-length interaction”. For the same compound, the solubility (kinetic) (as a rule, solubility judged after dilution from a stock solution rather than from solid) at 24 h in data set [2] was 70.9 µM (≈ 30 µg/mL). Also, in data set [3] (30 μM), the “Mass adducts on MSN” value is listed as “same formation of mass adducts as 100 μM incubation”. For the same compound, the “Number of mass adducts on MSN” value in data set [3] (100 μM, four available cysteines) is given as “two mass adducts”. The “Compound concentration giving 50% labeling of SYK-tSH2” value in data set [4] (10 μM SYK-tSH2, dose-response by mass spectrometry) is 30 µM. Also, the “Mass adducts on SYK” value in data set [4] (30 μM, 1 h, room temperature) is on record as “same formation of mass adducts as 100 μM incubation”. The “Number of mass adducts on SYK-tSH2” value in data set [4] (1 h, room temperature) is given as “two to four”.
As for `O=[N+]([O-])c1c(NCCO)cc(Cl)c2nonc12` [compound 1], the “Interference with the TR-FRET assay” value in data set [5] is reported as “quenching the TR-FRET donor signal”. Besides, in data set [6] (Cys206 mutated to serine or alanine), the “Inhibition of p-ITAM binding with mutated SYK-tSH2” value is reported as “complete loss of inhibition”. Besides, the “Disruption of SYK-tSH2 binding to doubly phosphorylated ITAM” value in data set [6] (fluorescence polarization inhibition assay) was “disrupt the binding”. The “Number of cysteines on SYK-tSH2 bound” value in data set [7] was 4. Moreover, in data set [4] (1 h, room temperature), the “Number of mass adducts on SYK-tSH2” value is given as “one or two”.
